Laboratory results as given in article PMC4724249 (European journal of medicinal chemistry, 2015).

Columns and labels:
[1] = system: MRSA CBD-635 and P. aeruginosa USF-1423; assay: MIC of reference antibiotics at the start of serial passage; assay type: cell-based; settings: organism not stated in the legend of Figure 4
[2] = system: a variety of fungi and Gram-positive bacteria; settings: cited from earlier work

Compound | MIC of reference antibiotic [1] [µM] | MICs [2] [µg/mL]
CN[C@H](CC(C)C)C(=O)N[C@H]1C(=O)N[C@@H](CC(N)=O)C(=O)N[C@H]2C(=O)N[C@H]3C(=O)N[C@H](C(=O)N[C@H](C(=O)O)c4cc(O)cc(O)c4-c4cc3ccc4O)[C@H](O)c3ccc(c(Cl)c3)Oc3cc2cc(c3O[C@@H]2O[C@H](CO)[C@@H](O)[C@H](O)[C@H]2O[C@H]2C[C@](C)(N)[C@H](O)[C@H](C)O2)Oc2ccc(cc2Cl)[C@H]1O [Vancomycin] | 7 | 
fusaricidin A |  | 0.78 to 3.12
O=C(O)c1cn(C2CC2)c2cc(N3CCNCC3)c(F)cc2c1=O [ciprofloxacin] | 30 | 
